Blank lines part the entries; values can stand above or below the compound they belong to. Starred links: 1 amine or outer side, 2 acyl side, 3 side chain; linkers in the order of their positions; H or OH if unused. Non-standard residues stand in square brackets, D forms with d. Residues, ends and D or L forms follow the SMILES beside them. Groups on a side chain read outwards from the residue. *: point of attachment. γGlu = O=C(O)[C@H](CCC(=O)[*:2])N[*:1]; Palmitoyl = CCCCCCCCCCCCCCCC(=O)*; Aib = CC(C)(N)C(=O)O
Experiments:
[1] = molecular target: T1, GLP-1 receptor (Homo sapiens, UniProt P43220); test: cAMP induction, firefly luciferase reporter assay, GLP-1 receptor; format: cell-based; conditions: for Activity at GLP-1 Receptor % Relative Activity: compared to native GLP-1
T1 construct: expressed in transfected cells; host or cells: HEK293
Procedure: (§1) The ability of each peptide to induce cAMP was measured in a firefly luciferase-based reporter assay.
(§2) At the end of the incubation, 100 μL of LucLite luminescence substrate reagent (Perkin Elmer, Wellesley, Mass.) were added to each well. The plate was shaken briefly, incubated 10 min in the dark and light output was measured on MicroBeta-1450 liquid scintillation counter (Perkin-Elmer, Wellesley, Mass.).

[2] = molecular target: T2, glucagon receptor (Homo sapiens, UniProt P47871); test: cAMP induction, firefly luciferase reporter assay, glucagon receptor; format: cell-based; conditions: for Activity at Glucagon Receptor % Relative Activity: compared to native glucagon
T2 construct: expressed in transfected cells; host or cells: HEK293
Procedure: as §1, §2

[3] = Activity at GLP-1 Receptor EC50 [pM], Table 3A

T2 sequence (P47871 26-477): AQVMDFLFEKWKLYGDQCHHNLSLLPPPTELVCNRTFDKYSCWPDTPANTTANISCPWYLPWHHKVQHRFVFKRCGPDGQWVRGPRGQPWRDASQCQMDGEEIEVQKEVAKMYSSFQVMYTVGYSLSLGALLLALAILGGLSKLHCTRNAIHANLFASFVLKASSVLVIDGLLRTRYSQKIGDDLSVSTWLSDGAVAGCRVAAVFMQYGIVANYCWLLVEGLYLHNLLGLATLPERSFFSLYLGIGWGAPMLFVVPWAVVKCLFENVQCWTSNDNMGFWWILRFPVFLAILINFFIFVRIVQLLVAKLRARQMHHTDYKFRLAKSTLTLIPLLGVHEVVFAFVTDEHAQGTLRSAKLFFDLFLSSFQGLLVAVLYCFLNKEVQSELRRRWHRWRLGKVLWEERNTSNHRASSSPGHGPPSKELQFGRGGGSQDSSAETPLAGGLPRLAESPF
T1 sequence (P43220 24-463): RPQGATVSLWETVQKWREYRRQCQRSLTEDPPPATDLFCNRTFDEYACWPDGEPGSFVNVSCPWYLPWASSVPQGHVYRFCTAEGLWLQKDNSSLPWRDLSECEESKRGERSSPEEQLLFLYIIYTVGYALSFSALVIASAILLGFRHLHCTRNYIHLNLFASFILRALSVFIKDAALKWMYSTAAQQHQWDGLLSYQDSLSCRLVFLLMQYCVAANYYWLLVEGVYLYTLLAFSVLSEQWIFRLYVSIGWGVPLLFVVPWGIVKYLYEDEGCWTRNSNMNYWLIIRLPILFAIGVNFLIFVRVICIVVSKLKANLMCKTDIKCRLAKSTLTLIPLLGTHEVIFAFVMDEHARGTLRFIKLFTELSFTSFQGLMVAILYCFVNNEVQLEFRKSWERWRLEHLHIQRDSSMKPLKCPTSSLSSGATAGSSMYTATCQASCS

SMILES: CCCCCCCCCCCCCCCC(=O)N[C@@H](CCC(=O)N[C@@H](CCC(=O)NCCCC[C@H](NC(=O)[C@H](CC(=O)O)NC(=O)[C@H](CO)NC(=O)[C@@H](NC(=O)[C@H](Cc1ccccc1)NC(=O)[C@@H](NC(=O)CNC(=O)[C@H](CCC(N)=O)NC(=O)C(C)(C)NC(=O)[C@@H](N)Cc1c[nH]cn1)[C@@H](C)O)[C@@H](C)O)C(=O)N[C@@H](CO)C(=O)N[C@@H](CCCCN)C(=O)N[C@@H](Cc1ccc(O)cc1)C(=O)N[C@@H](CC(C)C)C(=O)N[C@@H](CC(=O)O)C(=O)NC(C)(C)C(=O)N[C@@H](CCCNC(=N)N)C(=O)N[C@@H](C)C(=O)N[C@@H](C)C(=O)N[C@@H](CCC(N)=O)C(=O)N[C@@H](CC(=O)O)C(=O)N[C@@H](Cc1ccccc1)C(=O)N[C@H](C(=O)N[C@@H](CCC(N)=O)C(=O)N[C@@H](Cc1c[nH]c2ccccc12)C(=O)N[C@@H](CC(C)C)C(=O)N[C@@H](CC(C)C)C(=O)N[C@@H](CC(=O)O)C(=O)N[C@H](C(N)=O)[C@@H](C)O)C(C)C)C(=O)O)C(=O)O [compound 49]
EC50 [1, 3]: 6 pM
Activity at GLP-1 Receptor % Relative Activity ([1]; Table 3A): 375%
Activity at Glucagon Receptor % Relative Activity ([2]; Table 3A): 511%

SMILES: CCCCCCCCCCCCCCCC(=O)NCCCC[C@H](NC(=O)[C@H](CC(=O)O)NC(=O)[C@H](CO)NC(=O)[C@@H](NC(=O)[C@H](Cc1ccccc1)NC(=O)[C@@H](NC(=O)CNC(=O)[C@H](CCC(N)=O)NC(=O)C(C)(C)NC(=O)[C@@H](N)Cc1c[nH]cn1)[C@@H](C)O)[C@@H](C)O)C(=O)N[C@@H](CO)C(=O)N[C@@H](CCCCN)C(=O)N[C@@H](Cc1ccc(O)cc1)C(=O)N[C@@H](CC(C)C)C(=O)N[C@@H](CC(=O)O)C(=O)NC(C)(C)C(=O)N[C@@H](CCCNC(=N)N)C(=O)N[C@@H](C)C(=O)N[C@@H](C)C(=O)N[C@@H](CCC(N)=O)C(=O)N[C@@H](CC(=O)O)C(=O)N[C@@H](Cc1ccccc1)C(=O)N[C@H](C(=O)N[C@@H](CCC(N)=O)C(=O)N[C@@H](Cc1c[nH]c2ccccc12)C(=O)N[C@@H](CC(C)C)C(=O)N[C@@H](CCSC)C(=O)N[C@@H](CC(=O)O)C(=O)N[C@H](C(N)=O)[C@@H](C)O)C(C)C [compound 69] (H-H[Aib]QGTFTSDK(Palmitoyl)SKYLD[Aib]RAAQDFVQWLMDT-NH2; N-terminus assumed)
EC50 ([1]; Activity at GLP-1 Receptor EC50 [pM], Table 3B): 5 pM
Activity at GLP-1 Receptor % Relative Activity ([1]; Table 3B): 440%
Activity at Glucagon Receptor % Relative Activity ([2]; Table 3B): 325%

SMILES: CCCCCCCCCCCCCCCC(=O)N[C@@H](CCC(=O)NCCCC[C@H](NC(=O)[C@H](CC(=O)O)NC(=O)[C@H](CO)NC(=O)[C@@H](NC(=O)[C@H](Cc1ccccc1)NC(=O)[C@@H](NC(=O)CNC(=O)[C@H](CCC(N)=O)NC(=O)[C@@H](CO)NC(=O)[C@@H](N)Cc1c[nH]cn1)[C@@H](C)O)[C@@H](C)O)C(=O)N[C@@H](CO)C(=O)N[C@@H](CCCCN)C(=O)N[C@@H](Cc1ccc(O)cc1)C(=O)N[C@@H](CC(C)C)C(=O)N[C@@H](CC(=O)O)C(=O)N[C@@H](CCC(=O)O)C(=O)N[C@@H](CCC(N)=O)C(=O)N[C@@H](C)C(=O)N[C@@H](C)C(=O)N[C@@H](CCCCN)C(=O)N[C@@H](CCC(=O)O)C(=O)N[C@@H](Cc1ccccc1)C(=O)N[C@H](C(=O)N[C@@H](CS)C(=O)N[C@@H](Cc1c[nH]c2ccccc12)C(=O)N[C@@H](CC(C)C)C(=O)N[C@@H](CC(C)C)C(=O)N[C@@H](CC(=O)O)C(=O)N[C@H](C(=O)N[C@@H](CCC(=O)O)C(N)=O)[C@@H](C)O)[C@@H](C)CC)C(=O)O [compound 83]
Activity at GLP-1 Receptor % Relative Activity ([1]; Table 3C): 288%
Activity at Glucagon Receptor % Relative Activity ([2]; Table 3C): 61%

SMILES: CCCCCCCCCCCCCCCC(=O)N[C@@H](CCC(=O)N[C@@H](CCC(=O)NCCCC[C@H](NC(=O)[C@H](CC(=O)O)NC(=O)[C@H](CO)NC(=O)[C@@H](NC(=O)[C@H](Cc1ccccc1)NC(=O)[C@@H](NC(=O)CNC(=O)[C@H](CCC(N)=O)NC(=O)C(C)(C)NC(=O)[C@@H](N)Cc1c[nH]cn1)[C@@H](C)O)[C@@H](C)CC)C(=O)N[C@@H](CO)C(=O)N[C@@H](CCCCN)C(=O)N[C@@H](Cc1ccc(O)cc1)C(=O)N[C@@H](CC(C)C)C(=O)N[C@@H](CC(=O)O)C(=O)NC(C)(C)C(=O)N[C@@H](CCCNC(=N)N)C(=O)N[C@@H](C)C(=O)N[C@@H](C)C(=O)N[C@@H](CCC(N)=O)C(=O)N[C@@H](CC(=O)O)C(=O)N[C@@H](Cc1ccccc1)C(=O)N[C@H](C(=O)N[C@@H](CCC(N)=O)C(=O)N[C@@H](Cc1c[nH]c2ccccc12)C(=O)N[C@@H](CC(C)C)C(=O)N[C@@H](CCSC)C(=O)N[C@@H](CC(=O)O)C(=O)N[C@H](C(=O)O)[C@@H](C)O)C(C)C)C(=O)O)C(=O)O [compound 46]
Activity at GLP-1 Receptor % Relative Activity ([1]; Table 3A): 4.9%
Activity at Glucagon Receptor % Relative Activity ([2]; Table 3A): 2800%

Now from value to compound:

EC50 ([1]; Activity at GLP-1 Receptor EC50 (nM), Table 2B): 20 pM
Activity at GLP-1 Receptor % Relative Activity ([1]; Table 2B): 345%
Activity at Glucagon Receptor % Relative Activity ([2]; Table 2B): 115%
SMILES: CCCCCCCCCCCCCCCC(=O)N[C@@H](CCC(=O)N[C@@H](CCC(=O)NCCCC[C@H](NC(=O)[C@H](CC(=O)O)NC(=O)[C@H](CO)NC(=O)[C@@H](NC(=O)[C@H](Cc1ccccc1)NC(=O)[C@@H](NC(=O)CNC(=O)[C@H](CCC(N)=O)NC(=O)[C@@H](CO)NC(=O)[C@@H](N)Cc1c[nH]cn1)[C@@H](C)O)[C@@H](C)O)C(=O)N[C@@H](CO)C(=O)N[C@@H](CCCCN)C(=O)N[C@@H](Cc1ccc(O)cc1)C(=O)N[C@@H](CC(C)C)C(=O)N[C@@H](CC(=O)O)C(=O)NC(C)(C)C(=O)N[C@@H](CCCCN)C(=O)N[C@@H](CCCNC(=N)N)C(=O)N[C@@H](C)C(=O)N[C@@H](CCCCN)C(=O)N[C@@H](CCC(=O)O)C(=O)N[C@@H](Cc1ccccc1)C(=O)N[C@H](C(=O)N[C@@H](CS)C(=O)N[C@@H](Cc1c[nH]c2ccccc12)C(=O)N[C@@H](CC(C)C)C(=O)N[C@@H](CC(C)C)C(=O)N[C@@H](CC(=O)O)C(=O)N[C@H](C(N)=O)[C@@H](C)O)C(C)C)C(=O)O)C(=O)O [compound 63] (H-H[dS]QGTFTSDK([γGlu-γGlu-Palmitoyl])SKYLD[Aib]KRAKEFVCWLLDT-NH2; N-terminus assumed)

Activity at GLP-1 Receptor % Relative Activity ([1]; Table 5): 708%
Activity at Glucagon Receptor % Relative Activity ([2]; Table 5): 411%
SMILES: CCCCCCCCCCCCCCCC(=O)N[C@@H](CCC(=O)NCCCC[C@H](NC(=O)[C@H](CC(=O)O)NC(=O)[C@H](CO)NC(=O)[C@@H](NC(=O)[C@H](Cc1ccccc1)NC(=O)[C@@H](NC(=O)CNC(=O)[C@H](CCC(N)=O)NC(=O)[C@@H](CO)NC(=O)[C@@H](N)Cc1c[nH]cn1)[C@@H](C)O)[C@@H](C)O)C(=O)N[C@@H](CO)C(=O)N[C@@H](CCCCN)C(=O)N[C@@H](Cc1ccc(O)cc1)C(=O)N[C@@H](CC(C)C)C(=O)N[C@@H](CC(=O)O)C(=O)N[C@@H](CCC(=O)O)C(=O)N[C@@H](CCC(N)=O)C(=O)N[C@@H](C)C(=O)N[C@@H](C)C(=O)N[C@@H](CCCCN)C(=O)N[C@@H](CCC(=O)O)C(=O)N[C@@H](Cc1ccccc1)C(=O)N[C@H](C(=O)N[C@@H](CS)C(=O)N[C@@H](Cc1c[nH]c2ccccc12)C(=O)N[C@@H](CC(C)C)C(=O)N[C@@H](CC(C)C)C(=O)N[C@@H](CC(=O)O)C(=O)N[C@H](C(N)=O)[C@@H](C)O)[C@@H](C)CC)C(=O)O [compound 53]

EC50 [1, 3]: 6 pM
Activity at GLP-1 Receptor % Relative Activity ([1]; Table 3A): 384%
EC50 ([2]; Activity at Glucagon Receptor EC50 [pM], Table 3A): 3 pM
Activity at Glucagon Receptor % Relative Activity ([2]; Table 3A): 1194%
SMILES: CCCCCCCCCCCCCCCC(=O)N[C@@H](CCC(=O)N[C@@H](CCC(=O)NCCCC[C@H](NC(=O)[C@H](CC(=O)O)NC(=O)[C@H](CO)NC(=O)[C@@H](NC(=O)[C@H](Cc1ccccc1)NC(=O)[C@@H](NC(=O)CNC(=O)[C@H](CCC(N)=O)NC(=O)C(C)(C)NC(=O)[C@@H](N)Cc1c[nH]cn1)[C@@H](C)O)[C@@H](C)O)C(=O)N[C@@H](CO)C(=O)N[C@@H](CCCCN)C(=O)N[C@@H](Cc1ccc(O)cc1)C(=O)N[C@@H](CC(C)C)C(=O)N[C@@H](CCC(=O)O)C(=O)NC(C)(C)C(=O)N[C@@H](CCCNC(=N)N)C(=O)N[C@@H](C)C(=O)N[C@@H](C)C(=O)N[C@@H](CCC(N)=O)C(=O)N[C@@H](CC(=O)O)C(=O)N[C@@H](Cc1ccccc1)C(=O)N[C@H](C(=O)N[C@@H](CCC(N)=O)C(=O)N[C@@H](Cc1c[nH]c2ccccc12)C(=O)N[C@@H](CC(C)C)C(=O)N[C@@H](CCSC)C(=O)N[C@@H](CC(=O)O)C(=O)N[C@H](C(N)=O)[C@@H](C)O)C(C)C)C(=O)O)C(=O)O [compound 48] (H-H[Aib]QGTFTSDK([γGlu-γGlu-Palmitoyl])SKYLE[Aib]RAAQDFVQWLMDT-NH2; N-terminus assumed)

EC50 ([1]; Activity at GLP-1 Receptor EC50 [nM], Table 3C): 3 pM
Activity at GLP-1 Receptor % Relative Activity ([1]; Table 3C): 1200%
Activity at Glucagon Receptor % Relative Activity ([2]; Table 3C): 1500%
SMILES: CCCCCCCCCCCCCCCC(=O)N[C@@H](CCC(=O)NCCCC[C@H](NC(=O)[C@H](CC(=O)O)NC(=O)[C@H](CO)NC(=O)[C@@H](NC(=O)[C@H](Cc1ccccc1)NC(=O)[C@@H](NC(=O)CNC(=O)[C@H](CCC(N)=O)NC(=O)[C@@H](CO)NC(=O)[C@@H](N)Cc1c[nH]cn1)[C@@H](C)O)[C@@H](C)O)C(=O)N[C@@H](CO)C(=O)N[C@@H](CCCCN)C(=O)N[C@@H](Cc1ccc(O)cc1)C(=O)N[C@@H](CC(C)C)C(=O)N[C@@H](CC(=O)O)C(=O)N[C@@H](CCC(=O)O)C(=O)N[C@@H](CCC(N)=O)C(=O)N[C@@H](C)C(=O)N[C@@H](C)C(=O)N[C@@H](CCCCN)C(=O)N[C@@H](CCC(=O)O)C(=O)N[C@@H](Cc1ccccc1)C(=O)N[C@H](C(=O)N[C@@H](CS)C(=O)N[C@@H](Cc1c[nH]c2ccccc12)C(=O)N[C@@H](CC(C)C)C(=O)N[C@@H](CC(C)C)C(=O)N[C@@H](CC(=O)O)C(=O)N[C@H](C(=O)O)[C@@H](C)O)[C@@H](C)CC)C(=O)O [compound 76]

From patent publication US8703701B2 (Indiana University Research and Technology Corporation, priority 2009, dated 2014)
